Experiments:
human CYP11B2 = molecular target: T1, human CYP11B2 (Homo sapiens, UniProt P19099); experiment: G-402 cellular enzyme assay, human CYP11B2 (aldosterone release, HTRF); format: cell-based; conditions: G-402 cells expressing human CYP11B2; 1 μM Deoxycorticosterone
T1 construct: The expression plasmids contains the ORF for either human/cyno CYP11B1 or CYP11B2; expressed in transfected cells
T1 sequence (P19099 25-503): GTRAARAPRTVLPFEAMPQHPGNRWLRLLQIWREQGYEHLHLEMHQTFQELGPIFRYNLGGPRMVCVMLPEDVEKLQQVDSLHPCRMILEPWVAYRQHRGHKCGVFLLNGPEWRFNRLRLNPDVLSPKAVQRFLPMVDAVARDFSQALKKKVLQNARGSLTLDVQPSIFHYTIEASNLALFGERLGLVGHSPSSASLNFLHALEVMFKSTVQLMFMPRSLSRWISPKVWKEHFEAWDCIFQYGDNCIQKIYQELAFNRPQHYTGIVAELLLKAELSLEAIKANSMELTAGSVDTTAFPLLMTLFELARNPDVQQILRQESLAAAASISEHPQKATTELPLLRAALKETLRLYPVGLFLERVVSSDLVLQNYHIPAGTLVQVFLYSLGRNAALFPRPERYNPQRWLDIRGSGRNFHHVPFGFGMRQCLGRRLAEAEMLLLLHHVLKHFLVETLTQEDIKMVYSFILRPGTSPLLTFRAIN
Excerpt: (§1) Herein we identified the use of the G-402 cell line as a host cell to ectopically express (transiently or stably) enzymes of the CYP11 family. Specifically we developed stable G-402 cells expressing ectopically human CYP11B1, human CYP11B2, human CYP11A1, cynmolgus CYP11B1 or cynomolgus CYP11B2 enzyme activity. Importantly the identified cell line G-402 expresses co-factors (adrenodoxin and adrenodoxin reductase) important for the activity of the CYP11 family and no relevant enzyme activity of the CYP11 family (in comparison to H295R cells) was detected in these cells. Therefore the G-402 cell line is uniquely suited as a host cell for the ectopic expression of enzymes from the CYP11 family. G-402 cells can be obtained from ATCC (CRL-1440) and were originally derived from a renal leiomyoblastoma.
(§2) The expression plasmids contains the ORF for either human/cyno CYP11B1 or CYP11B2 under the control of a suitable promoter (CMV-promoter) and a suitable resistance marker (neomycin). Using standard techniques the expression plasmid is transfected into G-402 cells and these cells are then selected for expressing the given resistance markers. Individual cell-clones are then selected and assessed for displaying the desired enzymatic activity using 11-Deoxycorticosterone (Cyp11B2) or 11-Deoxycortisol (Cyp11B) as a substrate.
(§3) G-402 cells expressing CYP11 constructs were established as described above and maintained in McCoy's 5a Medium Modified, ATCC Catalog No. 30-2007 containing 10% FCS and 400 μg/ml G418 (Geneticin) at 37° C. under an atmosphere of 5% CO2/95% air. Cellular enzyme assays were performed in DMEM/F12 medium containing 2.5% charcoal treated FCS and appropriate concentration of substrate (0.3-10 uM 11-Deoxycorticosterone, 11-Deoxycortisol or Corticosterone). For assaying enzymatic activity, cells were plated onto 96 well plates and incubated for 16 h. An aliquot of the supernatant is then transferred and analyzed for the concentration of the expected product (Aldosterone for CYP11B2; Cortisol for CYP11B1). The concentrations of these steroids can be determined using HTRF assays from CisBio analyzing either Aldosterone or Cortisol.
(§4) Inhibition of the release of produced steroids can be used as a measure of the respective enzyme inhibition by test compounds added during the cellular enzyme assay. The dose dependent inhibition of enzymatic activity by a compound is calculated by means of plotting added inhibitor concentrations (x-axes) vs. measured steroid/product level (y-axes). The inhibition is then calculated by fitting the following 4-parameter sigmoidal function (Morgan-Mercer-Flodin (MMF) model) to the raw data points using the least squares method:
(§5) [formula] wherein, A is the maximum y value, B is the EC50 factor determined using XLFit, C is the minimum y value and D is the slope value.
(§6) EC50 values for compounds claimed herein were tested with the G402-based assay system described. Cyp11B2 enzyme activity was tested in presence of 1 μM Deoxycorticosterone and variable amounts of inhibitors; Cyp11B1 enzyme activity was tested in presence of 1 μM Deoxycortisol and variable amounts of inhibitors.

human CYP11B1 = molecular target: T2, human CYP11B1 (Homo sapiens, UniProt P15538); experiment: G-402 cellular enzyme assay, human CYP11B1 (cortisol release, HTRF); format: cell-based; conditions: G-402 cells expressing human CYP11B1; 1 μM Deoxycortisol
T2 construct: The expression plasmids contains the ORF for either human/cyno CYP11B1 or CYP11B2; expressed in transfected cells
T2 sequence (P15538 25-503): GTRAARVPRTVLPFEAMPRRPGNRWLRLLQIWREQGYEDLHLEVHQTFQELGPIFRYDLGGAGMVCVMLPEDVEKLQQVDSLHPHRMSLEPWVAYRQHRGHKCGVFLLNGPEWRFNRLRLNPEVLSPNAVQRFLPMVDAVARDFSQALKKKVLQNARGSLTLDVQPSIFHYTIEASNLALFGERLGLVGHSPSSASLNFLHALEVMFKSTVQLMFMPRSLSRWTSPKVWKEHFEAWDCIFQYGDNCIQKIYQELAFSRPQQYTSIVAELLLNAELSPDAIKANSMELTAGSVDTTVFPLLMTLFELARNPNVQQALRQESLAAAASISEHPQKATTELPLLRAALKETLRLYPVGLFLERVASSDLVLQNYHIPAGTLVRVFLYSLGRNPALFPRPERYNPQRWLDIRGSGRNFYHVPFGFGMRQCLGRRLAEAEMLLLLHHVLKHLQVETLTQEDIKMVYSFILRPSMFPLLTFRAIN
Excerpt: as §1, §2, §3, §4, §5, §6

Compound | EC50 (human CYP11B2) [nM] | EC50 (human CYP11B1) [nM]
CC1(C)c2cc(Cl)ccc2C(=O)N1c1cncc(C2CCN(S(=O)(=O)C3CC3)C2)c1 (single isomer, unassigned; (+)) [Example 12, (+)-5-chloro-2-[5-[(3R or 3S)-1-cyclopropylsulfonylpyrrolidin-3-yl]pyridin-3-yl]-3,3-dimethylisoindol-1-one] | 2 | 75
CCS(=O)(=O)N1CCC(c2cncc(N3C(=O)c4ccc(OC)nc4C3(C)C)c2)CC1 [Example 46, 6-[5-(1-Ethylsulfonyl-4-piperidyl)-3-pyridyl]-2-methoxy-7,7-dimethyl-pyrrolo[3,4-b]pyridin-5-one] | 23 | 1920
CCS(=O)(=O)N1CCC(c2cncc(N3C(=O)c4ccc(Cl)cc4C3(C)C)c2)CC1 [Example 2, 5-Chloro-2-[5-(1-ethylsulfonylpiperidin-4-yl)pyridin-3-yl]-3,3-dimethylisoindol-1-one] | 2 | 290
CCC(=O)N1CCC(c2cncc(N3C(=O)c4ccc(Cl)cc4C3(C)C)c2)CC1 [Example 1, 5-Chloro-3,3-dimethyl-2-[5-(1-propanoylpiperidin-4-yl)pyridin-3-yl]isoindol-1-one] | 5 | 238
CC1(C)c2cc(Cl)ccc2C(=O)N1c1cncc(C2CCCN(S(C)(=O)=O)C2)c1 (single isomer, unassigned; (-)) [Example 6, (−)-5-chloro-3,3-dimethyl-2-[5-[(3S or 3R)-1-methylsulfonylpiperidin-3-yl]pyridin-3-yl]isoindol-1-one] | 15 | 332
CC(C)S(=O)(=O)N1CCC(F)(c2cncc(N3C(=O)c4ccc(Cl)cc4C3(C)C)c2)C1 (stereo not drawn) [Example 14, 5-Chloro-2-[5-(3-fluoro-1-propan-2-ylsulfonylpyrrolidin-3-yl)pyridin-3-yl]-3,3-dimethylisoindol-1-one] | 4 | 232
CC1(C)c2cc(Cl)ccc2C(=O)N1c1cncc(C2CCN(S(C)(=O)=O)CC2)c1 [Example 3, 5-Chloro-3,3-dimethyl-2-[5-(1-methylsulfonylpiperidin-4-yl)pyridin-3-yl]isoindol-1-one] | 2 | 53
CCCS(=O)(=O)N1CCC(F)(c2cncc(N3C(=O)c4ccc(Cl)cc4C3(C)C)c2)CC1 [Example 37, 5-Chloro-2-[5-(4-fluoro-1-propylsulfonyl-4-piperidyl)-3-pyridyl]-3,3-dimethyl-isoindolin-1-one] | 2 | 98
CCS(=O)(=O)N1CCCC(c2cncc(N3C(=O)c4ccc(Cl)cc4C3(C)C)c2)C1 (stereo not drawn) [Example 4, 5-Chloro-2-[5-(1-ethylsulfonylpiperidin-3-yl)pyridin-3-yl]-3,3-dimethylisoindol-1-one] | 6 | 605
COc1ccc2c(n1)C(C)(C)N(c1cncc(C3(F)CCN(S(=O)(=O)C(C)C)CC3)c1)C2=O [Example 42, 6-[5-(4-Fluoro-1-isopropylsulfonyl-4-piperidyl)-3-pyridyl]-2-methoxy-7,7-dimethyl-pyrrolo[3,4-b]pyridin-5-one] | 34 | 8070
CCS(=O)(=O)N1CC(c2cncc(N3C(=O)c4ccc(Cl)cc4C3(C)C)c2)C1 [Example 32, 5-Chloro-2-[5-(1-ethylsulfonylazetidin-3-yl)pyridin-3-yl]-3,3-dimethylisoindol-1-one] | 7 | 616
CCS(=O)(=O)N1CCC(F)(c2cncc(N3C(=O)c4ccc(OC)nc4C3(C)C)c2)CC1 [Example 40, 6-[5-(1-Ethylsulfonyl-4-fluoro-4-piperidyl)-3-pyridyl]-2-methoxy-7,7-dimethyl-pyrrolo[3,4-b]pyridin-5-one] | 19 | 2420
CC(C)S(=O)(=O)N1CCC(c2cncc(N3C(=O)c4ccc(Cl)cc4[C@H]3C)c2)CC1 (single isomer, unassigned) [Example 26, (+)-(3R or 3S)-5-chloro-3-methyl-2-[5-(1-propan-2-ylsulfonylpiperidin-4-yl)pyridin-3-yl]-3H-isoindol-1-one] | 11 | 1620
CC1(C)c2cc(Cl)ccc2C(=O)N1c1cncc(C2CCN(S(=O)(=O)C3CC3)C2)c1 (single isomer, unassigned; (-)) [Example 13, (−)-5-chloro-2-[5-[(3S or 3R)-1-cyclopropylsulfonylpyrrolidin-3-yl]pyridin-3-yl]-3,3-dimethylisoindol-1-one] | 19 | 957
CCS(=O)(=O)N1CCC(c2cncc(N3C(=O)c4ccc(Cl)cc4[C@@H]3C)c2)CC1 (single isomer, unassigned) [Example 25, (−)-(3S or 3R)-5-chloro-2-[5-(1-ethylsulfonylpiperidin-4-yl)pyridin-3-yl]-3-methyl-3H-isoindol-1-one] | 2 | 107
COc1ccc2c(n1)C(C)(C)N(c1cncc(C3(F)CCN(S(=O)(=O)C4CC4)CC3)c1)C2=O [Example 45, 6-[5-(1-Cyclopropylsulfonyl-4-fluoro-4-piperidyl)-3-pyridyl]-2-methoxy-7,7-dimethyl-pyrrolo[3,4-b]pyridin-5-one] | 30 | 1250
CC1(C)c2cc(Cl)ccc2C(=O)N1c1cncc(C2CCN(S(=O)(=O)C3CC3)CC2)c1 [Example 17, 5-Chloro-2-[5-(1-cyclopropylsulfonylpiperidin-4-yl)pyridin-3-yl]-3,3-dimethylisoindol-1-one] | 3 | 1000
CCCS(=O)(=O)N1CC(c2cncc(N3C(=O)c4ccc(Cl)cc4C3(C)C)c2)C1 [Example 34, 5-Chloro-3,3-dimethyl-2-[5-(1-propylsulfonylazetidin-3-yl)pyridin-3-yl]isoindol-1-one] | 13 | 492
CC(C)S(=O)(=O)N1CCC(c2cncc(N3Cc4cc(Cl)ccc4C3=O)c2)CC1 [Example 22, 5-Chloro-2-[5-(1-propan-2-ylsulfonylpiperidin-4-yl)pyridin-3-yl]-3H-isoindol-1-one] | 84 | 7340
CC1(C)c2cc(Cl)ccc2C(=O)N1c1cncc(C2(F)CCN(S(=O)(=O)C3CC3)CC2)c1 [Example 38, 5-Chloro-2-[5-(1-cyclopropylsulfonyl-4-fluoro-4-piperidyl)-3-pyridyl]-3,3-dimethyl-isoindolin-1-one] | 1 | 575
COc1ccc2c(n1)C(C)(C)N(c1cncc(C3CCN(C(=O)c4cnccc4C)CC3)c1)C2=O [Example 49, 2-Methoxy-7,7-dimethyl-6-[5-[1-(4-methylpyridine-3-carbonyl)-4-piperidyl]-3-pyridyl]pyrrolo[3,4-b]pyridin-5-one] | 151 | 1320
